Data as given in PubChem BioAssay (NCI).
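Tested at 5 concentrations; 48 h exposure; 96-well plates; endpoints linearly interpolated, else capped at highest concentration. TGI marks complete inhibition of growth.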

Assays:
Experiment in all cases: growth of human tumour cells (NCI), 48 h
SW-620 colon = system: SW-620 colon
MOLT-4 leukemia = system: MOLT-4 leukemia
ACHN renal = system: ACHN renal
EKVX NSCLC = system: EKVX NSCLC
COLO 205 colon = system: COLO 205 colon
LXFL 529 NSCLC = system: LXFL 529 NSCLC
SK-MEL-5 melanoma = system: SK-MEL-5 melanoma
UO-31 renal = system: UO-31 renal
KM20L2 colon = system: KM20L2 colon
SNB-19 CNS = system: SNB-19 CNS
OVCAR-8 ovarian = system: OVCAR-8 ovarian
U251 CNS = system: U251 CNS
DLD-1 colon = system: DLD-1 colon
M14 melanoma = system: M14 melanoma
SF-295 CNS = system: SF-295 CNS
SK-MEL-28 melanoma = system: SK-MEL-28 melanoma
SNB-75 CNS = system: SNB-75 CNS
HOP-18 NSCLC = system: HOP-18 NSCLC
M19-MEL melanoma = system: M19-MEL melanoma
OVCAR-5 ovarian = system: OVCAR-5 ovarian
XF 498 CNS = system: XF 498 CNS
LOX IMVI melanoma = system: LOX IMVI melanoma
HOP-62 NSCLC = system: HOP-62 NSCLC
SF-539 CNS = system: SF-539 CNS
UACC-62 melanoma = system: UACC-62 melanoma
DMS 273 small cell lung = system: DMS 273 small cell lung
KM12 colon = system: KM12 colon
RXF 393 renal = system: RXF 393 renal
SN12C renal = system: SN12C renal
IGROV1 ovarian = system: IGROV1 ovarian
SK-MEL-2 melanoma = system: SK-MEL-2 melanoma
HCT-116 colon = system: HCT-116 colon
NCI-H23 lung = system: NCI-H23 lung
K-562 leukemia = system: K-562 leukemia
HCT-15 colon = system: HCT-15 colon
SF-268 CNS = system: SF-268 CNS
MALME-3M melanoma = system: MALME-3M melanoma
UACC-257 melanoma = system: UACC-257 melanoma
CAKI-1 renal = system: CAKI-1 renal
OVCAR-3 ovarian = system: OVCAR-3 ovarian
RPMI-8226 leukemia = system: RPMI-8226 leukemia
A549 NSCLC = system: A549 NSCLC
NCI-H226 lung = system: NCI-H226 lung
DMS 114 small cell lung = system: DMS 114 small cell lung
OVCAR-4 ovarian = system: OVCAR-4 ovarian
TK-10 renal = system: TK-10 renal
NCI-H522 lung = system: NCI-H522 lung
786-0 renal = system: 786-0 renal
SR leukemia = system: SR leukemia
HCC-2998 colon = system: HCC-2998 colon

Measured: TGI

O=C(c1ccccc1)c1nc2ccc(Cl)cc2c2c1Cc1ccccc1-2
> 100 µM: all assays above
